Columns and labels:
Test in all cases: radiometric filter-binding kinase assay, Kinase HotSpot
Settings in all cases: compound 0.5 µM; ATP 10 µM
DCLK2 (human) = DCLK2 (human) (UniProt Q8N568)
CAMKK1 (human) = CAMKK1 (human) (UniProt Q8N5S9)
MARK4 (human) = MARK4 (human) (UniProt Q96L34)
PRKD1 (human) = PRKD1 (human) (UniProt Q15139)
PIM3 (human) = PIM3 (human) (UniProt Q86V86)
MAP3K10 (human) = MAP3K10 (human) (UniProt Q02779)
WNK3 (human) = WNK3 (human) (UniProt Q9BYP7)
INSR (human) = INSR (human) (UniProt P06213)
MAPKAPK2 (human) = MAPKAPK2 (human) (UniProt P49137)
NTRK2 (human) = NTRK2 (human) (UniProt Q16620)
ACVR1 (human) = ACVR1 (human) (UniProt Q04771)
MERTK (human) = MERTK (human) (UniProt Q12866)
PAK4 (human) = PAK4 (human) (UniProt O96013)
BMX (human) = BMX (human) (UniProt P51813)
FLT3 (human) = FLT3 (human) (UniProt P36888)
KDR (human) = KDR (human) (UniProt P35968)
EPHA3 (human) = EPHA3 (human) (UniProt P29320)
NUAK1 (human) = NUAK1 (human) (UniProt O60285)
EPHB1 (human) = EPHB1 (human) (UniProt P54762)
PAK6 (human) = PAK6 (human) (UniProt Q9NQU5)
Sequence of PAK6 (human) (Q9NQU5 whole entry, looked up): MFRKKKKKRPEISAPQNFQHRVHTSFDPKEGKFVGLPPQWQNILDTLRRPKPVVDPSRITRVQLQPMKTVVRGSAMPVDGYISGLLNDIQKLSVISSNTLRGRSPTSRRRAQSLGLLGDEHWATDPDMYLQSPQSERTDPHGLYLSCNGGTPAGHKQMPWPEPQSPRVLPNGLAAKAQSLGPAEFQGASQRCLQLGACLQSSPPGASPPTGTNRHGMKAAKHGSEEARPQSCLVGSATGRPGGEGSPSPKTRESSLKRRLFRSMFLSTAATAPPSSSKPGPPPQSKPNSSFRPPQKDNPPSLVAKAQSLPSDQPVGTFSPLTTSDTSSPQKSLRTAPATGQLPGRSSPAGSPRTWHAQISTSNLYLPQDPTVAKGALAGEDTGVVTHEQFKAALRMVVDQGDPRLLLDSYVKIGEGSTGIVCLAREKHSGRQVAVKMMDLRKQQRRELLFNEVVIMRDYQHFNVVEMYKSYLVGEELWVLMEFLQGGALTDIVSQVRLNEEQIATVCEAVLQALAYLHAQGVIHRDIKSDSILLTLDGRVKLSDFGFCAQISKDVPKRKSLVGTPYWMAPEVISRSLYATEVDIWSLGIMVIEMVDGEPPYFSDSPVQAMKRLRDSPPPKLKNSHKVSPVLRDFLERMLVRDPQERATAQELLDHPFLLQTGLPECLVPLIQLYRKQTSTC

WNK2 (human) = WNK2 (human) (UniProt Q9Y3S1)
DYRK1A (human) = DYRK1A (human) (UniProt Q13627)
RPS6KA3 KD1 KD2 (human) = RPS6KA3 KD1 KD2 (human) (UniProt P51812)
DYRK4 (human) = DYRK4 (human) (UniProt Q9NR20)
TGFBR2 (human) = TGFBR2 (human) (UniProt P37173)
EPHA2 (human) = EPHA2 (human) (UniProt P29317)
GRK6 (human) = GRK6 (human) (UniProt P43250)
CDK2 CCNE1 (human) = CDK2 CCNE1 (human) (UniProt P24941+P24864)
SYK (human) = SYK (human) (UniProt P43405)
LIMK1 (human) = LIMK1 (human) (UniProt P53667)
BRSK2 (human) = BRSK2 (human) (UniProt Q8IWQ3)
Sequence of BRSK2 (human) (Q8IWQ3 whole entry, looked up): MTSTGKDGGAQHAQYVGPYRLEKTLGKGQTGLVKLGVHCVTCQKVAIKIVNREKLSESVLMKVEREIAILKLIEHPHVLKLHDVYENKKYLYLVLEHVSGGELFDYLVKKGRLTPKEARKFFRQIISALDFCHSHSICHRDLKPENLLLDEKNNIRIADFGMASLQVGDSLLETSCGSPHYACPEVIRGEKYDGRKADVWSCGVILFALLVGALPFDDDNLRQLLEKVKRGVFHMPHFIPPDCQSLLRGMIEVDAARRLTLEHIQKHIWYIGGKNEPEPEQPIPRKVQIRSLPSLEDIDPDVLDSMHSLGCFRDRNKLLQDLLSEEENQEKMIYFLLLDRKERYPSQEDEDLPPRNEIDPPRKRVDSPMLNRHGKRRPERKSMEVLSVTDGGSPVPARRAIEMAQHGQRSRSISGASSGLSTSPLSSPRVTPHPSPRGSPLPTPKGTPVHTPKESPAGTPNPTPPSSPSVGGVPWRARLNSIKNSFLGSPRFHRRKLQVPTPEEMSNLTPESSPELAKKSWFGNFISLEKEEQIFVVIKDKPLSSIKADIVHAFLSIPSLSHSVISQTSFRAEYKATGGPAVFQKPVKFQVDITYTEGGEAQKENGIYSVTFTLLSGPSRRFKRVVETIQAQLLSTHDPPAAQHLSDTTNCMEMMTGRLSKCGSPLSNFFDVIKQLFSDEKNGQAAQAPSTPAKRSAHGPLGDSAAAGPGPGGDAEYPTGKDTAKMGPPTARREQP

FRK (human) = FRK (human) (UniProt P42685)
Sequence of FRK (human) (P42685 whole entry, looked up): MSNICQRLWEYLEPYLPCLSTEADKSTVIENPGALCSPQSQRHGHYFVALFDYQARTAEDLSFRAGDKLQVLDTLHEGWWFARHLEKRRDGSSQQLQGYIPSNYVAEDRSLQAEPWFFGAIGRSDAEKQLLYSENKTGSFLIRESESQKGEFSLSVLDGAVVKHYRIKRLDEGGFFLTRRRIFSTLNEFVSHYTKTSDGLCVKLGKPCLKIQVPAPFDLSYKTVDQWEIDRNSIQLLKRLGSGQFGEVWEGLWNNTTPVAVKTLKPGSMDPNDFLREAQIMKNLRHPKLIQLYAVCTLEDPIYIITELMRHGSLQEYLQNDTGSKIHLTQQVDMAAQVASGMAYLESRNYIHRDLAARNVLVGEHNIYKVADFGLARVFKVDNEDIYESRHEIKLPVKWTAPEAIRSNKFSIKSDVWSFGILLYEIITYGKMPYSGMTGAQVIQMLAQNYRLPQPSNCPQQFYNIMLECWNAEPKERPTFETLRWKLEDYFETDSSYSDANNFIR

FGFR3 (human) = FGFR3 (human) (UniProt P22607)
PNCK (human) = PNCK (human) (UniProt Q6P2M8)
CAMKK2 (human) = CAMKK2 (human) (UniProt Q96RR4)
BLK (human) = BLK (human) (UniProt P51451)
MINK1 (human) = MINK1 (human) (UniProt Q8N4C8)
CLK1 (human) = CLK1 (human) (UniProt P49759)
EPHA4 (human) = EPHA4 (human) (UniProt P54764)
PTK6 (human) = PTK6 (human) (UniProt Q13882)
AURKB (human) = AURKB (human) (UniProt Q96GD4)
Sequence of AURKB (human) (Q96GD4 whole entry, looked up): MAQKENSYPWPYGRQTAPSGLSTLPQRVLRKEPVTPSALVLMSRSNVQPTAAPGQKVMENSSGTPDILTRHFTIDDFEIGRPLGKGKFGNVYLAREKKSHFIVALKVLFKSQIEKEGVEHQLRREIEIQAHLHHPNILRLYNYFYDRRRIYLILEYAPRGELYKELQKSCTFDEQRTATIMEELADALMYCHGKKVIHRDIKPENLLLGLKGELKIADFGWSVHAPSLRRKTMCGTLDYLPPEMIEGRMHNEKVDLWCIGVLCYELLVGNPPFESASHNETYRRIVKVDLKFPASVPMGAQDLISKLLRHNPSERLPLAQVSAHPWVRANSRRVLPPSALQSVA

PRKCI (human) = PRKCI (human) (UniProt P41743)

Sequence of WNK3 (human) (Q9BYP7 whole entry, looked up): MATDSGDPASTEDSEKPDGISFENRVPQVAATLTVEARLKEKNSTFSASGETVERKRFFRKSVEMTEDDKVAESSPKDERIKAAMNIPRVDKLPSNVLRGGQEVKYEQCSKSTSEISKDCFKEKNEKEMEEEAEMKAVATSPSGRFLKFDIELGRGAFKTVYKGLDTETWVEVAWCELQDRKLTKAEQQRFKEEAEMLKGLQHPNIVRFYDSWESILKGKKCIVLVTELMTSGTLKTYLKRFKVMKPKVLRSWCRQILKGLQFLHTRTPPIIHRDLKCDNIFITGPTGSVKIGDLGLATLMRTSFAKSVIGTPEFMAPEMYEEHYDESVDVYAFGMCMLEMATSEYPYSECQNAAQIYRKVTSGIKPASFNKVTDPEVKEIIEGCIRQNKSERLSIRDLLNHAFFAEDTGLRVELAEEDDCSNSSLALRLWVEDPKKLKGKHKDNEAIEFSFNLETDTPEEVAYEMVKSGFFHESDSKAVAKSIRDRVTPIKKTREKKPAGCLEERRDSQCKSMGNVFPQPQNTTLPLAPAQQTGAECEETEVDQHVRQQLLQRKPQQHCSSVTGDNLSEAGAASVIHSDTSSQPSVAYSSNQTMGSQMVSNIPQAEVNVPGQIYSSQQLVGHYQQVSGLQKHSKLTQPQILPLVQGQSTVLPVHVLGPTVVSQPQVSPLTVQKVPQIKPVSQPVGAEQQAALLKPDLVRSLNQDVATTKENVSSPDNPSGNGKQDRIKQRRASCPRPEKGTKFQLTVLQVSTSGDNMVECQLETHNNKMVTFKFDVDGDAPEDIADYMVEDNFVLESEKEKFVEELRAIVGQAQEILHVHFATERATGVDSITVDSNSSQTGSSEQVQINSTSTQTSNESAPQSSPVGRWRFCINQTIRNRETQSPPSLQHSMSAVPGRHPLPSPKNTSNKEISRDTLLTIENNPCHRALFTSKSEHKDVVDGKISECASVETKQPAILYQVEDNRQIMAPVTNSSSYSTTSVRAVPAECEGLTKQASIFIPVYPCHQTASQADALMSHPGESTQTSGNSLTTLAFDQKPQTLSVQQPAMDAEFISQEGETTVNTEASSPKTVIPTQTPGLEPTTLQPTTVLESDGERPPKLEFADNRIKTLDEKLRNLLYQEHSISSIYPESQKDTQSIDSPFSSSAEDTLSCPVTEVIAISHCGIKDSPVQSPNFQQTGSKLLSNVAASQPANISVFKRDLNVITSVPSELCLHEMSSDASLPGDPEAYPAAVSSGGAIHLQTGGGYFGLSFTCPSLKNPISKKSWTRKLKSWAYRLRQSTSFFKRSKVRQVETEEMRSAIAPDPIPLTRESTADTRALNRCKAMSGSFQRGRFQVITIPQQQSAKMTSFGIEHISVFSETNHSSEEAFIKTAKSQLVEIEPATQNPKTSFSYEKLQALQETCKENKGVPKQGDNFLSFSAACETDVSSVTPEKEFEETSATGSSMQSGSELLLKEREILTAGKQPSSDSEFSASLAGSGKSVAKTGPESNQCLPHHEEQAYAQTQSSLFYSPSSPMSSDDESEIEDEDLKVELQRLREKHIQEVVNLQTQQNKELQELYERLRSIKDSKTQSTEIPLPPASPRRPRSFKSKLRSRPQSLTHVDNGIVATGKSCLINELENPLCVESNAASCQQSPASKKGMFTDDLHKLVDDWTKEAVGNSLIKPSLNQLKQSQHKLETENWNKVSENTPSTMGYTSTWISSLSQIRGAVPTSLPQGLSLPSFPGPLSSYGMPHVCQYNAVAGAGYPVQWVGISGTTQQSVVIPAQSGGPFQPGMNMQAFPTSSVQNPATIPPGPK
Sequence of MAP3K10 (human) (Q02779 whole entry, looked up): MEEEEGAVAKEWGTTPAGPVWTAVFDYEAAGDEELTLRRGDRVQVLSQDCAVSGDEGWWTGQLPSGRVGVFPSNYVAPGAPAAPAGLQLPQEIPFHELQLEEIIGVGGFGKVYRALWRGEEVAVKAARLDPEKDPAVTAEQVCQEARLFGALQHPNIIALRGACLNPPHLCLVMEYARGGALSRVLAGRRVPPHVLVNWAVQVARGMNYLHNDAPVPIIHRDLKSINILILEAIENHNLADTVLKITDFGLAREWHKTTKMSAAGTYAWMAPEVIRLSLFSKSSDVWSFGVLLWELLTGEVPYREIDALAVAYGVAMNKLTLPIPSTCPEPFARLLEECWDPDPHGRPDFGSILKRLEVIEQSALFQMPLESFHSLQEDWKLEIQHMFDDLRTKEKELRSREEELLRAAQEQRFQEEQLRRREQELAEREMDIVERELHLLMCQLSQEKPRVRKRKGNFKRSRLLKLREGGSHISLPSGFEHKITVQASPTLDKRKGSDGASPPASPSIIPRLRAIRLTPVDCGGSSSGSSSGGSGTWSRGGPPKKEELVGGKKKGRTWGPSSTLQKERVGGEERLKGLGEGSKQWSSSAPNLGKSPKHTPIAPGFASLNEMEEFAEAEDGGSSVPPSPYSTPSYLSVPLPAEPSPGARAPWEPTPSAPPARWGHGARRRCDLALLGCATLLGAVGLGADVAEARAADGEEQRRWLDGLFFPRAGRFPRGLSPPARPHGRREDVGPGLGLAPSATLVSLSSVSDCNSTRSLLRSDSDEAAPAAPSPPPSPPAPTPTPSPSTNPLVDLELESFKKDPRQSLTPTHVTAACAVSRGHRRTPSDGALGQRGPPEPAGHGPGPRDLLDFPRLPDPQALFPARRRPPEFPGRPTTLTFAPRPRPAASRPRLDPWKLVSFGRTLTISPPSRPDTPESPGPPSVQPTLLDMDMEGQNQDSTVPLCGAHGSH

With `Nc1nnc2[nH]c3ccccc3nc1-2` the residual activity (DCLK2 (human)) was 94.6%, the residual activity (CAMKK1 (human)) was 112% and the residual activity (MARK4 (human)) was 99.8%. For the same molecule, the residual activity (PRKD1 (human)) was 94.9%, the residual activity (PIM3 (human)) was 94% and the residual activity (MAP3K10 (human)) was 93.1%. For the same molecule, the residual activity (WNK3 (human)) was 98%, the residual activity (INSR (human)) was 95.3% and the residual activity (MAPKAPK2 (human)) was 105%. For the same molecule, the residual activity (NTRK2 (human)) was 96.4%, the residual activity (ACVR1 (human)) was 94.3% and the residual activity (MERTK (human)) was 92.9%. It also gave a residual activity (PAK4 (human)) of 104%, a residual activity (BMX (human)) of 99.5% and a residual activity (FLT3 (human)) of 75.9%. It also gave a residual activity (KDR (human)) of 95.8%, a residual activity (EPHA3 (human)) of 95.2% and a residual activity (NUAK1 (human)) of 86.3%. For the same molecule, the residual activity (EPHB1 (human)) was 92.3%, the residual activity (PAK6 (human)) was 96.3% and the residual activity (WNK2 (human)) was 95.9%. The residual activity (DYRK1A (human)) was 95.1%, the residual activity (RPS6KA3 KD1 KD2 (human)) was 88% and the residual activity (DYRK4 (human)) was 89.2%. For the same molecule, the residual activity (TGFBR2 (human)) was 82.4%, the residual activity (EPHA2 (human)) was 98.5% and the residual activity (GRK6 (human)) was 104%. It also gave a residual activity (CDK2 CCNE1 (human)) of 85.5%, a residual activity (SYK (human)) of 100% and a residual activity (LIMK1 (human)) of 105%. For the same molecule, the residual activity (BRSK2 (human)) was 96.5%, the residual activity (FRK (human)) was 96.8% and the residual activity (FGFR3 (human)) was 96.5%. The residual activity (PNCK (human)) was 102%, the residual activity (CAMKK2 (human)) was 98.8% and the residual activity (BLK (human)) was 96.6%. For the same molecule, the residual activity (MINK1 (human)) was 97.9%, the residual activity (CLK1 (human)) was 99.2% and the residual activity (EPHA4 (human)) was 86.5%. It also gave a residual activity (PTK6 (human)) of 84.1%, a residual activity (AURKB (human)) of 101% and a residual activity (PRKCI (human)) of 103%.

For `O=C1NC(=O)C(c2c[nH]c3ccccc23)=C1c1c[nH]c2ccccc12`, the residual activity (DCLK2 (human)) was 89.3%, the residual activity (CAMKK1 (human)) was 114% and the residual activity (MARK4 (human)) was 95.3%. For the same molecule, the residual activity (PRKD1 (human)) was 97.6%, the residual activity (PIM3 (human)) was 32.7% and the residual activity (MAP3K10 (human)) was 79%. It also gave a residual activity (WNK3 (human)) of 98.3%, a residual activity (INSR (human)) of 99.6% and a residual activity (MAPKAPK2 (human)) of 95.6%. It also gave a residual activity (NTRK2 (human)) of 90.7%, a residual activity (ACVR1 (human)) of 97.1% and a residual activity (MERTK (human)) of 86.1%. The residual activity (PAK4 (human)) was 102%, the residual activity (BMX (human)) was 100% and the residual activity (FLT3 (human)) was 16.1%. The residual activity (KDR (human)) was 60.8%, the residual activity (EPHA3 (human)) was 95.1% and the residual activity (NUAK1 (human)) was 78.5%. It also gave a residual activity (EPHB1 (human)) of 83.1%, a residual activity (PAK6 (human)) of 92.4% and a residual activity (WNK2 (human)) of 92.7%. For the same molecule, the residual activity (DYRK1A (human)) was 80.8%, the residual activity (RPS6KA3 KD1 KD2 (human)) was 46.7% and the residual activity (DYRK4 (human)) was 94.3%. The residual activity (TGFBR2 (human)) was 95.5%, the residual activity (EPHA2 (human)) was 91.6% and the residual activity (GRK6 (human)) was 101%. For the same molecule, the residual activity (CDK2 CCNE1 (human)) was 71.4%, the residual activity (SYK (human)) was 103% and the residual activity (LIMK1 (human)) was 103%. It also gave a residual activity (BRSK2 (human)) of 86%, a residual activity (FRK (human)) of 88.2% and a residual activity (FGFR3 (human)) of 70.7%. For the same molecule, the residual activity (PNCK (human)) was 93.3%, the residual activity (CAMKK2 (human)) was 92.8% and the residual activity (BLK (human)) was 93.7%. For the same molecule, the residual activity (MINK1 (human)) was 83.4%, the residual activity (CLK1 (human)) was 111% and the residual activity (EPHA4 (human)) was 87.6%. The residual activity (PTK6 (human)) was 84.6%, the residual activity (AURKB (human)) was 89.3% and the residual activity (PRKCI (human)) was 96.9%.

In the case of `CC(C)c1nn(-c2c(Cl)cccc2Cl)c2nc(Cc3ccc(OCCO)cc3)nc(O)c12`, the residual activity (DCLK2 (human)) is reported as 95.9%, the residual activity (CAMKK1 (human)) is reported as 100% and the residual activity (MARK4 (human)) is reported as 99.5%. For the same molecule, the residual activity (PRKD1 (human)) was 103%, the residual activity (PIM3 (human)) was 105% and the residual activity (MAP3K10 (human)) was 90.3%. For the same molecule, the residual activity (WNK3 (human)) was 96.7%, the residual activity (INSR (human)) was 100% and the residual activity (MAPKAPK2 (human)) was 95.4%. It also gave a residual activity (NTRK2 (human)) of 101%, a residual activity (ACVR1 (human)) of 94.7% and a residual activity (MERTK (human)) of 96.1%. For the same molecule, the residual activity (PAK4 (human)) was 106%, the residual activity (BMX (human)) was 104% and the residual activity (FLT3 (human)) was 74.2%. For the same molecule, the residual activity (KDR (human)) was 105%, the residual activity (EPHA3 (human)) was 86.2% and the residual activity (NUAK1 (human)) was 96.9%. It also gave a residual activity (EPHB1 (human)) of 91.3%, a residual activity (PAK6 (human)) of 102% and a residual activity (WNK2 (human)) of 95.7%. The residual activity (DYRK1A (human)) was 105%, the residual activity (RPS6KA3 KD1 KD2 (human)) was 88.4% and the residual activity (DYRK4 (human)) was 96.7%. For the same molecule, the residual activity (TGFBR2 (human)) was 74.3%, the residual activity (EPHA2 (human)) was 100% and the residual activity (GRK6 (human)) was 101%. It also gave a residual activity (CDK2 CCNE1 (human)) of 8.6%, a residual activity (SYK (human)) of 98.6% and a residual activity (LIMK1 (human)) of 107%. For the same molecule, the residual activity (BRSK2 (human)) was 98.3%, the residual activity (FRK (human)) was 89.6% and the residual activity (FGFR3 (human)) was 97%. It also gave a residual activity (PNCK (human)) of 94.3%, a residual activity (CAMKK2 (human)) of 90.9% and a residual activity (BLK (human)) of 98.8%. It also gave a residual activity (MINK1 (human)) of 97.1%, a residual activity (CLK1 (human)) of 94.7% and a residual activity (EPHA4 (human)) of 102%. The residual activity (PTK6 (human)) was 87.1%, the residual activity (AURKB (human)) was 104% and the residual activity (PRKCI (human)) was 95.2%.

In the case of `CN(C)C[C@H]1CCn2c(c(C3=C(c4cn(C)c5ccccc45)C(=O)NC3=O)c3ccccc32)C1`, the residual activity (DCLK2 (human)) is reported as 97.8%, the residual activity (CAMKK1 (human)) is reported as 116% and the residual activity (MARK4 (human)) is reported as 93.9%. It also gave a residual activity (PRKD1 (human)) of 101%, a residual activity (PIM3 (human)) of 83.1% and a residual activity (MAP3K10 (human)) of 102%. For the same molecule, the residual activity (WNK3 (human)) was 100%, the residual activity (INSR (human)) was 88% and the residual activity (MAPKAPK2 (human)) was 102%. The residual activity (NTRK2 (human)) was 102%, the residual activity (ACVR1 (human)) was 93.3% and the residual activity (MERTK (human)) was 95.4%. It also gave a residual activity (PAK4 (human)) of 104%, a residual activity (BMX (human)) of 91.7% and a residual activity (FLT3 (human)) of 37.1%. The residual activity (KDR (human)) was 101%, the residual activity (EPHA3 (human)) was 99.2% and the residual activity (NUAK1 (human)) was 90.9%. For the same molecule, the residual activity (EPHB1 (human)) was 106%, the residual activity (PAK6 (human)) was 114% and the residual activity (WNK2 (human)) was 103%. The residual activity (DYRK1A (human)) was 88.7%, the residual activity (RPS6KA3 KD1 KD2 (human)) was 1.81% and the residual activity (DYRK4 (human)) was 98.9%. It also gave a residual activity (TGFBR2 (human)) of 98.5%, a residual activity (EPHA2 (human)) of 102% and a residual activity (GRK6 (human)) of 66.4%. It also gave a residual activity (CDK2 CCNE1 (human)) of 64.4%, a residual activity (SYK (human)) of 99.6% and a residual activity (LIMK1 (human)) of 89.4%. For the same molecule, the residual activity (BRSK2 (human)) was 102%, the residual activity (FRK (human)) was 103% and the residual activity (FGFR3 (human)) was 96.3%. For the same molecule, the residual activity (PNCK (human)) was 95.2%, the residual activity (CAMKK2 (human)) was 108% and the residual activity (BLK (human)) was 103%. It also gave a residual activity (MINK1 (human)) of 97.8%, a residual activity (CLK1 (human)) of 105% and a residual activity (EPHA4 (human)) of 103%. For the same molecule, the residual activity (PTK6 (human)) was 90.4%, the residual activity (AURKB (human)) was 96.3% and the residual activity (PRKCI (human)) was 36.2%.
